One test deals with Jack bean urease (JBU) (Canavalia ensiformis, UniProt P07374). Kind of test: ESI-MS monitoring of urea depletion. The format is biochemical.
In test [1] the target is human angiotensin-converting enzyme (ACE) (Homo sapiens, UniProt P12821). Kind of test: spectrophotometric hippuric acid formation, % inhibition at […]. The format is biochemical.
Test [2] has as its target T1, phosphodiesterase-5A1 (PDE5A1) (Homo sapiens, UniProt O76074).
T1 construct: gene PDE5A
Kind of test: biochemical.

Results on two molecules are retold here after PMC6770154, “A Multi-Biochemical and In Silico Study on Anti-Enzymatic Actions of Pyroglutamic Acid against PDE-5, ACE, and Urease Using Various Analytical Techniques: Unexplored Pharmacological Properties and Cytotoxicity Evaluation” (Biomolecules, 2019).

In general, IC50 refers to the midpoint of a concentration-inhibition curve. The term inhibition denotes the relative decrease from the control value, in per cent. High values mean strong suppression, low ones little suppression.

Chain of Jack bean urease (JBU) (P07374 whole entry, looked up): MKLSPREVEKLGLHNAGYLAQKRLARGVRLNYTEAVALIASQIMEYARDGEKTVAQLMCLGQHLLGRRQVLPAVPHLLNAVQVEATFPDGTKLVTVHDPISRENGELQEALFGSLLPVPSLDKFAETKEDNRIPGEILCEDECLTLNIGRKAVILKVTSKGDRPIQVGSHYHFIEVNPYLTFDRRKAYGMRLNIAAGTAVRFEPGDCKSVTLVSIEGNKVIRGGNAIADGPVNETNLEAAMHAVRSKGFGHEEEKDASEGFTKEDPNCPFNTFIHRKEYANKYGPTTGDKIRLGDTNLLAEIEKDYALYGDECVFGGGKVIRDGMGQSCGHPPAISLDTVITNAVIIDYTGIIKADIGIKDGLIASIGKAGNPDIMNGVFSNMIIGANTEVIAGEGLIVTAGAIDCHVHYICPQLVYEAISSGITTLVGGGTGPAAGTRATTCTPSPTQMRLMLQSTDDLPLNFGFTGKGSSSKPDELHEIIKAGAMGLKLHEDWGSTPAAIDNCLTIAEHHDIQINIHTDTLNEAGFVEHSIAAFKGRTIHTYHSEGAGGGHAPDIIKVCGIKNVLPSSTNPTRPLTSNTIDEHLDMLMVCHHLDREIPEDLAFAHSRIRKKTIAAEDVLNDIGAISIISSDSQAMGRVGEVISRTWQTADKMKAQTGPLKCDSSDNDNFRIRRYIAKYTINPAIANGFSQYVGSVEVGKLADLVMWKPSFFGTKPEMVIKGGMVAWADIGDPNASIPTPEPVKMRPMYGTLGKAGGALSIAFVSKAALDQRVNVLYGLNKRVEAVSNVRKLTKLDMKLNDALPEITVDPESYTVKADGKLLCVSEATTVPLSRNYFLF
Chain of human angiotensin-converting enzyme (ACE) (P12821 30-1306): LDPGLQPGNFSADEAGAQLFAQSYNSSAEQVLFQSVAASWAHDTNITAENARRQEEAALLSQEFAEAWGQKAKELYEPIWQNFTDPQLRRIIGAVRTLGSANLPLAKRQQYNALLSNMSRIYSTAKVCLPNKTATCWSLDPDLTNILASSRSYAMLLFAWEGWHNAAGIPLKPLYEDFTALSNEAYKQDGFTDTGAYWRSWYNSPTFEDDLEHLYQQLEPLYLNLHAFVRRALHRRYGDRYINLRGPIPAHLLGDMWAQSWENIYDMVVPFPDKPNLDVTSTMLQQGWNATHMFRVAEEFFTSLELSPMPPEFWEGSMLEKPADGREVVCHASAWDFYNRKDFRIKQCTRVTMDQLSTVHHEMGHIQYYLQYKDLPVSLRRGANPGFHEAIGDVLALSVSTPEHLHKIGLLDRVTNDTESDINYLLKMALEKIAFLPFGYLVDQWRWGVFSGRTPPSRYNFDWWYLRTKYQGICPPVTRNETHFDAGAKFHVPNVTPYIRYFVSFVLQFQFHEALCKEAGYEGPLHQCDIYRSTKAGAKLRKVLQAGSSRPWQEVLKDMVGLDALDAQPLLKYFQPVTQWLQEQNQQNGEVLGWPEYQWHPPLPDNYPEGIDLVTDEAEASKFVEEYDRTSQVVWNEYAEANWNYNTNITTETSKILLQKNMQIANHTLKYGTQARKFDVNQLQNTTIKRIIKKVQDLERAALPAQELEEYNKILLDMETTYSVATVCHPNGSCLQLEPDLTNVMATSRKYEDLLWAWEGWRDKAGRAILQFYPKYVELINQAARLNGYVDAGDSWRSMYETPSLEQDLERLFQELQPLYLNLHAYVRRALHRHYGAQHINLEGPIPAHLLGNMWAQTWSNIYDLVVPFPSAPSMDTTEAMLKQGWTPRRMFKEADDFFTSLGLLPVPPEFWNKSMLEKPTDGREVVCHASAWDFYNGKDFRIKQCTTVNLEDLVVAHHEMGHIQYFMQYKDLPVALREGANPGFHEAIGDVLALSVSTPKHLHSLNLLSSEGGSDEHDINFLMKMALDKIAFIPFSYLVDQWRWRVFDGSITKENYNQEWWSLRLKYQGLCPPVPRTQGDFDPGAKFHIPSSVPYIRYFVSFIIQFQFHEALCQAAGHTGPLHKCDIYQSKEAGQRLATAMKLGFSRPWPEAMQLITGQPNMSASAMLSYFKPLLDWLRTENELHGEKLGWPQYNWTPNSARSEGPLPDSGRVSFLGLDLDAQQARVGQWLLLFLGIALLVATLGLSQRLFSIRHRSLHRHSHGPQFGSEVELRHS

Turning to `CC(=O)NO` [AHA, acetohydroxamic acid, reference compound], the 50% inhibitory concentration (IC50) at Jack bean urease (JBU) amounted to 3.9 µM.
Molecule `O=C1CC[C@@H](C(=O)O)N1` [pGlu, pyroglutamic acid] came in with an inhibition at 20 µg/mL in test [1] of 98.2 ± 1.12%. The IC50 against Jack bean urease (JBU) is 1.8 µM; in test [2], 5.23 ± 1.33 µM.
